For this test, the system named is modified version of the GPR119 receptor (94% identity to human receptor). Kind of test: cAMP production assay (LANCE cAMP kit, TR-FRET) in HEK-293 cells. The settings on record: for cAMP production in HEK-293 cells: HEK-293 cells stably expressing modified GPR119, test compounds 0.2 nM to 10 μM, one-hour incubation; for Fold over baseline: increase in cAMP relative to basal levels, agonist activity if 1.5-fold or greater. Type of test: cell-based. As for the experimental part:
The assay utilized HEK-293 cells that stably express a modified version of the GPR119 receptor (94% identity to human receptor), under the control of a CMV promoter containing a tet-on element for tetracycline-inducible expression. GPR119 agonist-induced cyclic AMP (cAMP) production was measured in this cell line using the LANCE cAMP kit (Perkin Elmer, Waltham, Mass.). To generate a working stock of cells for the assay, cells were treated overnight with 1 μg/mL doxycycline at 37° C. in the presence of 5% CO2 to induce receptor expression. Cells were then harvested by enzymatic dissociation with 0.05% trypsin, resuspended in freezing medium (DMEM growth medium with 10% each of fetal bovine serum and DMSO), aliquoted and frozen at −80° C. On the day of the assay, frozen cells were thawed, washed 1× in PBS and resuspended in Hank's buffered salt solution (HBSS) containing 5 mM HEPES, 0.1% BSA and Alexa Fluor 647-conjugated anti-cAMP antibody (diluted 1:100). The cell suspension was then transferred to a Proxiplate Plus white 384-well assay plate (Perkin-Elmer) at 2000 cells/well. Test compounds at final concentrations ranging from 0.2 nM to 10 μM were added to the assay plate, followed by a one-hour incubation at ambient temperature (volume=10 μL/well). DMSO concentration was held constant at 0.5%. After incubation with test compounds, 10 μL, of a detergent buffer containing a biotinylated cAMP/Europium-conjugated streptavidin complex (Europium-labeled cAMP tracer) were added to each well on the assay plate, followed by a 2-hour incubation at ambient temperature. During this incubation cAMP released from lysed cells competes with the Europium-labeled cAMP tracer for binding to the Alexa Fluor 647-conjugated antibody. […] Cellular cAMP levels were then determined by interpolation of raw signal data using a cAMP standard curve. Compounds were determined to have agonist activity if they stimulated a 1.5-fold or greater increase in cAMP relative to basal levels.

This note sets out measurements from patent US20140256756A1, “PIPERIDINYL-SUBSTITUTED LACTAMS AS GPR119 MODULATORS” (Array BioPharma Inc., priority 2011, published 2014).

Structures can show the parent of a compound that is named as a salt.

Regarding `CC(C)c1nsc(N2CCC(N3CC[C@H](Oc4ccc(S(C)(=O)=O)c(Cl)c4)C3=O)CC2)n1` [Example 54, (S)-3-(3-chloro-4-(methylsulfonyl)phenoxy)-1-(1-(3-isopropyl-1,2,4-thiadiazol-5-yl)piperidin-4-yl)pyrrolidin-2-one], the “cAMP production in HEK-293 cells” value amounted to 17.2 nmol and the Fold over baseline is reported as 3.6.

Take `CC(C)c1nsc(N2CCC(N3CC[C@@H](Oc4ccc(S(C)(=O)=O)cc4F)C3=O)CC2)n1` [Example 51, (R)-3-(2-fluoro-4-(methylsulfonyl)phenoxy)-1-(1-(3-isopropyl-1,2,4-thiadiazol-5-yl)piperidin-4-yl)pyrrolidin-2-one]: the “cAMP production in HEK-293 cells” value amounted to 33.3 nmol and the Fold over baseline worked out at 5.9.

Regarding `CS(=O)(=O)c1cc(F)c(N[C@H]2CCN(C3CCN(c4nc(C(F)(F)F)ns4)CC3)C2=O)cc1F` [Example 89, (S)-3-(2,5-difluoro-4-(methylsulfonyl)phenylamino)-1-(1-(3-(trifluoromethyl)-1,2,4-thiadiazol-5-yl)piperidin-4-yl)pyrrolidin-2-one], the “cAMP production in HEK-293 cells” value turned out to be 15.1 nmol and the Fold over baseline was found to be 3.8.

As for `CC(C)Cc1nsc(N2CCC(N3CC[C@H](Oc4ccc(S(C)(=O)=O)cc4F)C3=O)CC2)n1` [Example 56, (S)-3-(2-fluoro-4-(methylsulfonyl)phenoxy)-1-(1-(3-isobutyl-1,2,4-thiadiazol-5-yl)piperidin-4-yl)pyrrolidin-2-one], the “cAMP production in HEK-293 cells” value is 17.4 nmol and the Fold over baseline came to 3.4.

Take `Cc1cc(O[C@H]2CCN(C3CCN(c4nc(C(C)C)ns4)CC3)C2=O)c(F)cc1S(C)(=O)=O` [Example 58, (S)-3-(2-fluoro-5-methyl-4-(methylsulfonyl)phenoxy)-1-(1-(3-isopropyl-1,2,4-thiadiazol-5-yl)piperidin-4-yl)pyrrolidin-2-one]: the “cAMP production in HEK-293 cells” value was 48.4 nmol and the Fold over baseline worked out at 4.9.

Take `CS(=O)(=O)c1ccc(N[C@H]2CCCN(C3CCN(c4nc(-c5ccccc5)ns4)CC3)C2=O)c(F)c1` [Example 29, (S)-3-(2-fluoro-4-(methylsulfonyl)phenylamino)-1′-(3-phenyl-1,2,4-thiadiazol-5-yl)-[1,4′-bipiperidin]-2-one]: the “cAMP production in HEK-293 cells” value is 7.3 nmol and the Fold over baseline is 2.2.

For `CC(C)Cc1nsc(N2CCC(N3CCC[C@H](Nc4ccc(S(C)(=O)=O)cc4F)C3=O)CC2)n1` [Example 28, (S)-3-(2-fluoro-4-(methylsulfonyl)phenylamino)-1′-(3-isobutyl-1,2,4-thiadiazol-5-yl)-[1,4′-bipiperidin]-2-one], the “cAMP production in HEK-293 cells” value was determined as 11.6 nmol and the Fold over baseline is recorded as 2.3.

As for `CS(=O)(=O)c1ccc(O[C@H]2CCN(C3CCN(c4nc(C5CCOCC5)ns4)CC3)C2=O)c(F)c1` [Example 59, (S)-3-(2-fluoro-4-(methylsulfonyl)phenoxy)-1-(1-(3-(tetrahydro-2H-pyran-4-yl)-1,2,4-thiadiazol-5-yl)piperidin-4-yl)pyrrolidin-2-one], the “cAMP production in HEK-293 cells” value came out at 28.3 nmol and the Fold over baseline was 4.2.

For the molecule `COC(C)(C)c1nsc(N2CCC(N3CC[C@H](Oc4c(F)cc(S(C)(=O)=O)cc4F)C3=O)CC2)n1` [Example 40, (S)-3-(2,6-difluoro-4-(methylsulfonyl)phenoxy)-1-(1-(3-(2-methoxypropan-2-yl)-1,2,4-thiadiazol-5-yl)piperidin-4-yl)pyrrolidin-2-one], the “cAMP production in HEK-293 cells” value came to 21.1 nmol and the Fold over baseline was 3.9.

`CCS(=O)(=O)c1ccc(NC2CCN(C3CCN(c4nc(C(C)C)ns4)CC3)C2=O)cc1F` (centres unmarked) [Example 20, 3-(4-(ethylsulfonyl)-3-fluorophenylamino)-1-(1-(3-isopropyl-1,2,4-thiadiazol-5-yl)piperidin-4-yl)pyrrolidin-2-one]: the “cAMP production in HEK-293 cells” value is 22.6 nmol and the Fold over baseline was 3.5.

Regarding `CCS(=O)(=O)c1ccc(OC2CCN(C3CCN(c4nc(C(C)C)ns4)CC3)C2=O)c(F)c1` (centres unmarked) [Example 61, 3-(4-(ethylsulfonyl)-2-fluorophenoxy)-1-(1-(3-isopropyl-1,2,4-thiadiazol-5-yl)piperidin-4-yl)pyrrolidin-2-one], the “cAMP production in HEK-293 cells” value amounted to 23.5 nmol and the Fold over baseline is given as 3.5.

For `CS(=O)(=O)c1ccc(O[C@H]2CCN(C3CCN(c4nc(-c5cnco5)ns4)CC3)C2=O)c(F)c1` [Example 70, (S)-3-(2-fluoro-4-(methylsulfonyl)phenoxy)-1-(1-(3-(oxazol-5-yl)-1,2,4-thiadiazol-5-yl)piperidin-4-yl)pyrrolidin-2-one], the “cAMP production in HEK-293 cells” value worked out at 11.4 nmol and the Fold over baseline is 3.1.

Take `CC(C)c1nsc(N2CCC(N3CCC(Oc4ccc(S(C)(=O)=O)cc4)C3=O)CC2)n1` (centres unmarked) [Example 65, -(1-(3-Isopropyl-1,2,4-thiadiazol-5-yl)piperidin-4-yl)-3-(4-(methylsulfonyl)phenoxy)pyrrolidin-2-one]: the “cAMP production in HEK-293 cells” value was 22.1 nmol and the Fold over baseline was 4.1.

Take `Cc1nn(C)c(Oc2nsc(N3CCC(N4CC[C@H](Oc5ccc(S(C)(=O)=O)cc5F)C4=O)CC3)n2)c1C` [Example 75, (S)-3-(2-fluoro-4-(methylsulfonyl)phenoxy)-1-(1-(3-(1,3,4-trimethyl-1H-pyrazol-5-yloxy)-1,2,4-thiadiazol-5-yl)piperidin-4-yl)pyrrolidin-2-one]: the “cAMP production in HEK-293 cells” value was determined as 6.9 nmol and the Fold over baseline amounted to 2.7.

With `CC(C)c1nsc(N2CCC(N3CCC(Oc4ccc(S(=O)(=O)C5CC5)cc4F)C3=O)CC2)n1` (centres unmarked) [Example 46, 3-(4-(Cyclopropylsulfonyl)-2-fluorophenoxy)-1-(1-(3-isopropyl-1,2,4-thiadiazol-5-yl)piperidin-4-yl)pyrrolidin-2-one trifluoroacetate], the “cAMP production in HEK-293 cells” value is 20.7 nmol and the Fold over baseline came out at 4.7.

For the molecule `CS(=O)(=O)c1cc(F)c(O[C@H]2CCN(C3CCN(c4cnc(C(F)(F)F)o4)CC3)C2=O)cc1F` [Example 97, (S)-3-(2,5-difluoro-4-(methylsulfonyl)phenoxy)-1-(1-(2-(trifluoromethyl)oxazol-5-yl)piperidin-4-yl)pyrrolidin-2-one], the “cAMP production in HEK-293 cells” value was 19.0 nmol and the Fold over baseline is recorded as 4.1.

Consider `Cn1nccc1-c1nsc(N2CCC(N3CC[C@H](Oc4ccc(S(C)(=O)=O)cc4F)C3=O)CC2)n1` [Example 72, (S)-3-(2-fluoro-4-(methylsulfonyl)phenoxy)-1-(1-(3-(1-methyl-1H-pyrazol-5-yl)-1,2,4-thiadiazol-5-yl)piperidin-4-yl)pyrrolidin-2-one], for which the “cAMP production in HEK-293 cells” value worked out at 10.6 nmol and the Fold over baseline is recorded as 2.9.

Take `CC(C)c1nsc(N2CCC(N3CC[C@H](Nc4ccc(S(C)(=O)=O)cn4)C3=O)CC2)n1` [Example 16, (S)-1-(1-(3-isopropyl-1,2,4-thiadiazol-5-yl)piperidin-4-yl)-3-(5-(methylsulfonyl)pyridin-2-ylamino)pyrrolidin-2-one]: the “cAMP production in HEK-293 cells” value was determined as 27.2 nmol and the Fold over baseline is on record as 3.7.

For `CC(C)c1nsc(N2CCC(N3CCC(Oc4ccc(C(=O)NCCO)cc4F)C3=O)CC2)n1.Cl` (centres unmarked) [Example 77, 3-Fluoro-N-(2-hydroxyethyl)-4-(1-(1-(3-isopropyl-1,2,4-thiadiazol-5-yl)piperidin-4-yl)-2-oxopyrrolidin-3-yloxy)benzamide hydrochloride], the “cAMP production in HEK-293 cells” value amounted to 15.1 nmol and the Fold over baseline is 2.8.

Turning to `Cc1cc(O[C@H]2CCN(C3CCN(c4nc(C(C)C)ns4)CC3)C2=O)c(F)cc1Br` [Example 57, (S)-3-(4-bromo-2-fluoro-5-methylphenoxy)-1-(1-(3-isopropyl-1,2,4-thiadiazol-5-yl)piperidin-4-yl)pyrrolidin-2-one], the “cAMP production in HEK-293 cells” value came out at 22.0 nmol and the Fold over baseline is reported as 2.8.

On to `CS(=O)(=O)c1ccc(O[C@H]2CCN(C3CCN(c4nc(C(F)(F)F)ns4)CC3)C2=O)c(F)c1` [Example 86, (S)-3-(2-Fluoro-4-(methylsulfonyl)phenoxy)-1-(1-(3-(trifluoromethyl)-1,2,4-thiadiazol-5-yl)piperidin-4-yl)pyrrolidin-2-one], for which the “cAMP production in HEK-293 cells” value was 11.1 nmol and the Fold over baseline is given as 3.4.

Take `COC(C)(C)c1nsc(N2CCC(N3CC[C@H](Oc4ccc(S(C)(=O)=O)cc4F)C3=O)CC2)n1` [Example 38, (S)-3-(2-fluoro-4-(methylsulfonyl)phenoxy)-1-(1-(3-(2-methoxypropan-2-yl)-1,2,4-thiadiazol-5-yl)piperidin-4-yl)pyrrolidin-2-one]: the “cAMP production in HEK-293 cells” value turned out to be 42.1 nmol and the Fold over baseline was 6.6.
